Test results: EP2125859B1, “ESTRATRIENE DERIVATIVES AND THEIR USES AS 17BETA-HYDROXYSTEROID DEHYDROGENASE INHIBITORS” (Abbott Products GmbH, priority 2006, dated 2008)

How the values were obtained:
[1] = molecular target: T1, recombinant human 17β-HSD1 (Homo sapiens, UniProt P14061); experiment: Inhibition of recombinant human 17β-HSD1 (HPLC assay, conversion of 3H-estrone to estradiol); type: biochemical; details: 30 nM 3H-estrone, 1 mM NADPH, 30 min at RT; for inhibition at 0.1 µM / inhibition at 1 µM: 0.5 h, read-out: inhibition of rec. 17β-HSD1
T1 construct: made in house; host or cells: Sf9 insect cells (baculovirus, Bac to Bac Expression System)
T1 sequence (P14061 1-328): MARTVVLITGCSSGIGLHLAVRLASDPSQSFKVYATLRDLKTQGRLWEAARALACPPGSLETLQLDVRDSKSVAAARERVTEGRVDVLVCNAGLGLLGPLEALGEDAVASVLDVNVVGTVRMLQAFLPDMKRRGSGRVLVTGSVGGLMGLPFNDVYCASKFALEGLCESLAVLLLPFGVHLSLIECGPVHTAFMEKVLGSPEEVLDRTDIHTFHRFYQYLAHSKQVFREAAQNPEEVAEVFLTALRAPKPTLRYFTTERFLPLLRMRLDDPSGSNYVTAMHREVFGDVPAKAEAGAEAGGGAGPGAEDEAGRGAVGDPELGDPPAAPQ
Procedure: Inhibition of the 17β-hydroxysteroid dehydrogenase type 1 enzyme 17β-HSD1 purification: Recombinant baculovirus was generated by the "Bac to Bac Expression System" (Invitrogen). Recombinant bacmid was transfected to Sf9 insect cells using "Cellfectin Reagent" (Invitrogen). 60h later cells were harvested; the microsomal fraction was isolated as described by Puranen et al. (1994). Aliquots were stored frozen until determination of enzymatic activity.
Assay - Inhibition of recombinant human 17β-HSD1: Recombinant protein (0.1 µg/ml) was incubated in 20 mM KH2PO4 pH 7.4 with 30 nM 3H-estrone and 1 mM NADPH for 30 min at RT, in the presence of potential inhibitors at concentrations of 1 µM or 0.1 µM. Inhibitor stock solutions were prepared in DMSO. Final concentration of DMSO was adjusted to 1 % in all samples. The enzyme reaction was stopped by addition of 10 % trichloroacetic acid (final concentration). Samples were centrifuged in a microtiter plate at 4000 rpm for 10 min. Supernatants were applied to reverse phase HPLC on a Waters Symmetry C18 column, equipped with a Waters Sentry Guard column. Isocratic HPLC runs were performed at RT at a flow rate of 1 ml/min of acetonitrile:water 48:52 as running solvent. Radioactivity was monitored in the eluate by a Packard Flow Scintillation Analyzer. Total radioactivity for estrone and estradiol were determined in each sample and percent conversion of estrone to estradiol was calculated according to the following formula: [formula] [formula]
The values "% inhibition" were determined for exemplified compounds, and the results are summarized in table 4 (for 17β-HSD1). table 4: HSD 1 inhibition values in % of selected compounds of formula I

17β-HSD3 = molecular target: T2, 17β-HSD3 (Homo sapiens, UniProt P37058); experiment: Inhibition of 17β-HSD3 in MCF-7 cell lines stably expressing the enzyme (HPLC, tritium labeled androstenedione); type: cell-based; details: MCF7, MCF-7 cells expressing 17β-HSD3, androstenedione 2 nM
T2 construct: expressed in transfected cells; host or cells: MCF-7 cells stably expressing 17β-HSD3
T2 sequence (P37058 1-310): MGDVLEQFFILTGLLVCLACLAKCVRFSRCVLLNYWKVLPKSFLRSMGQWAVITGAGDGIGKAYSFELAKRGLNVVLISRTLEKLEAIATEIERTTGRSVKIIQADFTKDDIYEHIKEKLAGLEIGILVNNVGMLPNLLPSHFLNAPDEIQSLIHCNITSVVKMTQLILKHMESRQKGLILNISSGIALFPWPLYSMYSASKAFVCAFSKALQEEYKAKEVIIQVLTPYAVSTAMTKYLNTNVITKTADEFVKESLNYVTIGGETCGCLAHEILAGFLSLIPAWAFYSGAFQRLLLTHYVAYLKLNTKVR
Procedure: The compounds were screened in respect of 17β-HSD3 enzyme activity in vitro on established MCF-7 cell lines, each stably expressing the 17β-HSD3 enzyme. The interconversion of substrate by 17β-HSD3 and the 17β-HSD3 inhibiting activity of chemical compounds in these cell lines were detected by HPLC system.
Varying amounts of the test compounds were incubated in the growth medium of the 17β-HSD3 expressing cells together tritium labeled androstenedione (2 nM). The medium samples were removed after exact incubation time and the reaction is stopped by trichloroacetic acid (TCA). The samples were analyzed by HPLC-coupled flow scintillation analysis.
Conversion: The 17β-HSD3 inhibiting activity of an individual test compound was calculated by comparing the conversion of a control sample without any test compound (referred to as "Negative Control") to the (reduced) conversion of the test sample containing the particular compound to be tested (referred to as "Test Sample"). [formula]
Two concentrations of each compound were used. The number of the compound refers to the numbers indicated in the Experimental Section.
The values "% inhibition" were determined for exemplified compounds, and the results are summarized in table 5 (HSD 3). table 5: 17β-HSD3 inhibition values in % of selected compounds of formula I

Row | Compound | inhibition at 0.1 µM ([1]; 100 nM inhibitor) [%] | inhibition at 1 µM ([1]; 1 µM inhibitor) [%] | inhibition at 1 µM (17β-HSD3) [%] | inhibition at 10 µM (17β-HSD3) [%] | inhibition of rec. 17β-HSD1 ([1]; 100 nM inhibitor) [%] | inhibition of rec. 17β-HSD1 ([1]; 1 µM inhibitor) [%]
1 | C[C@]12CC[C@@H]3c4ccc(O)cc4CC[C@H]3[C@@H]1[C@H](CCn1cc(CCc3ccccc3)nn1)CC2=O [Compound 1, 3-Hydroxy-15ß-[2-(4-phenethyl-[1,2,3]triazol-1-yl)-ethyl]-estra-1,3,5(10)-trien-17-one] | 92 | 98 |  |  |  | 
2 | C[C@]12CC[C@@H]3c4ccc(O)cc4CC[C@H]3[C@@H]1[C@H](CCn1cc(-c3cccc(O)c3)nn1)CC2=O [Compound 2, 3-Hydroxy-15β-{2-[4-(3-hydroxy-phenyl)-[1,2,3]triazol-1-yl]-ethyl}-estra-1,3,5(10)-trien-17-one] | 88 | 97 |  |  |  | 
3 | C[C@]12CC[C@@H]3c4ccc(O)cc4CC[C@H]3[C@@H]1[C@H](CCn1cc(-c3ccc(F)cc3F)nn1)CC2=O [Compound 3, 3-Hydroxy-15β-{2-[4-(2,4-difluoro-phenyl)-[1,2,3]triazol-1-yl]-ethyl}-estra-1,3,5(10)-trien-17-one] | 86 | 96 |  |  |  | 
4 | CC(C)CCc1cn(CC[C@@H]2CC(=O)[C@@]3(C)CC[C@@H]4c5ccc(O)cc5CC[C@H]4[C@H]23)nn1 [Compound 4, 3-Hydroxy-15β-{2-[4-(3-methyl-butyl)-[1,2,3]triazol-1-yl]-ethyl}-estra-1,3,5(10)-trien-17-one] | 92 | 96 | 5 | 40 |  | 
5 | C[C@]12CC[C@@H]3c4ccc(O)cc4CC[C@H]3[C@@H]1[C@H](CCn1cc(CC3CCCCC3)nn1)CC2=O [Compound 6, 3-Hydroxy-15β-[2-(4-cyclohexylmethyl-[1,2,3]triazol-1-yl)-ethyl]-estra-1,3,5(10)-trien-17-one] | 92 | 94 | 16 | 50 |  | 
6 | C[C@]12CC[C@@H]3c4ccc(O)cc4CC[C@H]3[C@@H]1[C@H](CCn1cc(-c3ccccc3F)nn1)CC2=O [Compound 7, 3-Hydroxy-15β-{2-[4-(2-fluoro-phenyl)-[1,2,3]triazol-1-yl]-ethyl}-estra-1,3,5(10)-trien-17-one] | 81 | 94 | 12 | 36 |  | 
7 | C[C@]12CC[C@@H]3c4ccc(O)cc4CC[C@H]3[C@@H]1[C@H](CCCn1cc(CCc3ccccc3)nn1)CC2=O [Compound 8, 3-Hydroxy-15β-[3-(4-phenethyl-[1,2,3]triazol-1-yl)-propyl]-estra-1,3,5(10)-trien-17-one] | 81 | 93 | 6 | 61 |  | 
8 | C[C@]12CC[C@@H]3c4ccc(O)cc4CC[C@H]3[C@@H]1[C@H](CCn1cc(-c3cccc(C(F)(F)F)c3)nn1)CC2=O [Compound 9, 3-Hydroxy-15β-{2-[4-(3-trifluoromethyl-phenyl)-[1,2,3]triazol-1-yl]-ethyl}-estra-1,3,5(10)-trien-17-one] | 84 | 93 |  |  |  | 
9 | C[C@]12CC[C@@H]3c4ccc(O)cc4CC[C@H]3[C@@H]1[C@H](CCn1cc(-c3ccc(C(F)(F)F)cc3)nn1)CC2=O [Compound 10, 3-Hydroxy-15β-{2-[4-(4-trifluoromethyl-phenyl)-[1,2,3]triazol-1-yl]-ethyl}-estra-1,3,5(10)-trien-17-one] | 83 | 93 |  |  |  | 
10 | COc1ccc(-c2cn(CC[C@@H]3CC(=O)[C@@]4(C)CC[C@@H]5c6ccc(O)cc6CC[C@H]5[C@H]34)nn2)cc1 [Compound 11, 3-Hydroxy-15β-{2-[4-(4-methoxy-phenyl)-[1,2,3]triazol-1-yl]-ethyl}-estra-1,3,5(10)-trien-17-one] | 75 | 93 |  |  |  | 
11 | C[C@]12CC[C@@H]3c4ccc(O)cc4CC[C@H]3[C@@H]1[C@H](CCn1cc(-c3ccc(OC(F)(F)F)cc3)nn1)CC2=O [Compound 13, 3-Hydroxy-15β-{2-[4-(4-trifluoromethoxy-phenyl)-[1,2,3]triazol-1-yl]-ethyl}-estra-1,3,5(10)-trien-17-one] | 83 | 92 |  |  |  | 
12 | C[C@]12CC[C@@H]3c4ccc(O)cc4CC[C@H]3[C@@H]1[C@H](CCCn1cc(-c3cc(F)cc(F)c3)nn1)CC2=O [Compound 18, 3-Hydroxy-15ß-{3-[4-(3,5-Difluoro-phenyl)-[1,2,3]triazol-1-yl]-propyl}-estra-1,3,5(10)-trien-17-one] | 64 | 88 |  |  |  | 
13 | C[C@]12CC[C@@H]3c4ccc(O)cc4CC[C@H]3[C@@H]1[C@H](CCCn1cc(CC3CCCCC3)nn1)CC2=O [Compound 21, 3-Hydroxy-15β-[3-(4-cyclohexylmethyl-[1,2,3]triazol-1-yl)-propyl]-estra-1,3,5(10)-trien-17-one] | 50 | 86 |  |  |  | 
14 | C[C@]12CC[C@@H]3c4ccc(O)cc4CC[C@H]3[C@@H]1[C@H](CCCn1cc(-c3ccc(F)cc3F)nn1)CC2=O [Compound 28, 3-Hydroxy-15β-{3-[4-(2,4-difluoro-phenyl)-[1,2,3]triazol-1-yl]-propyl}-estra-1,3,5(10)-trien-17-one] | 40 | 83 |  |  |  | 
15 | CC(C)CCc1cn(CCC[C@H]2CC(=O)[C@@]3(C)CC[C@@H]4c5ccc(O)cc5CC[C@H]4[C@H]23)nn1 [Compound 30, 3-hydroxy-15-[3-(4-isopentyl-[1,2,3]triazol-1-yl)-propyl]-13-methyl-6,7,8,9,11,12,13,14,15,16-decahydro-cyclopenta[a]phenanthren-17-one] | 25 | 82 |  |  |  | 
16 | CC(C)Cc1cn(CCC[C@H]2CC(=O)[C@@]3(C)CC[C@@H]4c5ccc(O)cc5CC[C@H]4[C@H]23)nn1 [Compound 31, 3-Hydroxy-15-[3-(4-isobutyl-[1,2,3]triazol-1-yl)-propyl]-13-methyl-6,7,8,9,11,12,13,14,15,16-decahydro-cyclopenta[a]phenanthren-17-one] | 32 | 82 |  |  |  | 
17 | C[C@]12CC[C@@H]3c4ccc(O)cc4CC[C@H]3[C@@H]1[C@H](CCCn1cc(-c3ccc(OC(F)(F)F)cc3)nn1)CC2=O [Compound 32, 3-Hydroxy-15β-{3-[4-(4-trifluoromethoxy-phenyl)-[1,2,3]triazol-1-yl]-propyl}-estra-1,3,5(10)-trien-17-one] | 67 | 81 |  |  |  | 
18 | COC(=O)c1ccc(-c2cn(CCC[C@@H]3CC(=O)[C@@]4(C)CC[C@@H]5c6ccc(OC)cc6CC[C@H]5[C@H]34)nn2)cc1 [Compound 89, 4-{1-[3-(3-Methoxy-15β-17-oxo-estra-1,3,5(10)-trien-15-yl)-propyl]-1H-[1,2,3]triazol-4-yl}-benzoic acid methyl ester] |  |  |  |  | 11 | 52
